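48-hour exposure; five concentrations; linearly interpolated endpoints. Here, GI50 denotes the concentration required for 50% inhibition of growth.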 Active and inactive are the calls of the source. Cut-off read from the data, not from the text of the source: active = GI50 up to about 1.1 µM and inactive = higher.
Columns and labels:
Experiment in all cases: NCI tumour cell line growth inhibition, 48 h
[1] = test system: Hs-578T
[2] = test system: T47D
[3] = test system: MDA-MB-435
[4] = test system: SK-MEL-28
[5] = test system: SNB-19
[6] = test system: CCRF-CEM
[7] = test system: HOP-62
[8] = test system: BT-549
[9] = test system: HT-29
[10] = test system: ACHN
[11] = test system: U-251
[12] = test system: DU-145
[13] = test system: MDA-N
[14] = test system: HCT-116
[15] = test system: SK-MEL-5
[16] = test system: SK-MEL-2
[17] = test system: KM12
[18] = test system: SF-539
[19] = test system: SF-295
[20] = test system: RXF 393
[21] = test system: NCI-H23
[22] = test system: OVCAR-3
[23] = test system: K562
[24] = test system: NCI-H522
[25] = test system: CAKI-1
[26] = test system: OVCAR-8
[27] = test system: OVCAR-4
[28] = test system: HCT-15
[29] = test system: NCI/ADR-RES
[30] = test system: OVCAR-5
[31] = test system: 786-0
[32] = test system: SR
[33] = test system: UO-31
[34] = test system: RPMI-8226
[35] = test system: MOLT-4
[36] = test system: PC-3
[37] = test system: HCC 2998
[38] = test system: UACC-62
[39] = test system: EKVX
[40] = test system: IGROV-1
[41] = test system: SW-620
[42] = test system: NCI-H460
[43] = test system: COLO 205
[44] = test system: SNB-75
[45] = test system: M14
[46] = test system: SN12C
[47] = test system: SK-OV-3
[48] = test system: HOP-92
[49] = test system: A549
[50] = test system: Malme-3M
[51] = test system: NCI-H226
[52] = test system: SF-268
[53] = test system: HL-60
[54] = test system: LOX IMVI
[55] = test system: MDA-MB-231
[56] = test system: UACC-257
[57] = test system: TK-10
[58] = test system: MCF7
[59] = test system: A498

CC(C)CC(=O)NC(Nc1ccc(S(=O)(=O)Nc2ncccn2)cc1)(C(F)(F)F)C(F)(F)F
GI50 [1]: > 100 µM (inactive)
GI50 [2]: > 100 µM (inactive)
GI50 [3]: > 100 µM (inactive)
GI50 [4]: > 100 µM (inactive)
GI50 [5]: > 100 µM (inactive)
GI50 [6]: > 100 µM (inactive)
GI50 [7]: > 100 µM (inactive)
GI50 [8]: > 100 µM (inactive)
GI50 [9]: > 100 µM (inactive)
GI50 [10]: > 100 µM (inactive)
GI50 [11]: > 100 µM (inactive)
GI50 [12]: > 100 µM (inactive)
GI50 [13]: > 100 µM (inactive)
GI50 [14]: > 100 µM (inactive)
GI50 [15]: > 100 µM (inactive)
GI50 [16]: > 100 µM (inactive)
GI50 [17]: > 100 µM (inactive)
GI50 [18]: > 100 µM (inactive)
GI50 [19]: > 100 µM (inactive)
GI50 [20]: 20.4 µM (inactive)
GI50 [21]: > 100 µM (inactive)
GI50 [22]: > 100 µM (inactive)
GI50 [23]: > 100 µM (inactive)
GI50 [24]: > 100 µM (inactive)
GI50 [25]: > 100 µM (inactive)
GI50 [26]: > 100 µM (inactive)
GI50 [27]: > 100 µM (inactive)
GI50 [28]: > 100 µM
GI50 [29]: > 100 µM (inactive)
GI50 [30]: > 100 µM (inactive)
GI50 [31]: > 100 µM (inactive)
GI50 [32]: > 100 µM (inactive)
GI50 [33]: > 100 µM (inactive)
GI50 [34]: > 100 µM (inactive)
GI50 [35]: > 100 µM (inactive)
GI50 [36]: > 100 µM (inactive)
GI50 [37]: > 100 µM (inactive)
GI50 [38]: > 100 µM (inactive)
GI50 [39]: > 100 µM (inactive)
GI50 [40]: > 100 µM (inactive)
GI50 [41]: > 100 µM (inactive)
GI50 [42]: > 100 µM (inactive)
GI50 [43]: > 100 µM (inactive)
GI50 [44]: > 100 µM (inactive)
GI50 [45]: > 100 µM (inactive)
GI50 [46]: > 100 µM (inactive)
GI50 [47]: > 100 µM (inactive)
GI50 [48]: > 100 µM (inactive)
GI50 [49]: > 100 µM (inactive)
GI50 [50]: > 100 µM (inactive)
GI50 [51]: > 100 µM (inactive)
GI50 [52]: > 100 µM (inactive)
GI50 [53]: > 100 µM (inactive)
GI50 [54]: > 100 µM (inactive)
GI50 [55]: > 100 µM (inactive)
GI50 [56]: > 100 µM (inactive)

O=C(O)c1cc(Sc2ccc([N+](=O)[O-])c(C(=O)O)c2)ccc1[N+](=O)[O-]
GI50 [57]: > 100 µM (inactive)
GI50 [58]: > 100 µM (inactive)
GI50 [1]: > 100 µM (inactive)
GI50 [2]: > 100 µM (inactive)
GI50 [3]: > 100 µM (inactive)
GI50 [4]: > 100 µM (inactive)
GI50 [5]: > 100 µM (inactive)
GI50 [6]: > 100 µM (inactive)
GI50 [7]: > 100 µM (inactive)
GI50 [8]: > 100 µM (inactive)
GI50 [9]: > 100 µM (inactive)
GI50 [10]: > 100 µM (inactive)
GI50 [11]: > 100 µM (inactive)
GI50 [12]: > 100 µM (inactive)
GI50 [59]: > 100 µM (inactive)
GI50 [13]: > 100 µM (inactive)
GI50 [14]: > 100 µM (inactive)
GI50 [15]: > 100 µM (inactive)
GI50 [16]: > 100 µM (inactive)
GI50 [17]: > 100 µM (inactive)
GI50 [18]: > 100 µM (inactive)
GI50 [19]: > 100 µM (inactive)
GI50 [20]: > 100 µM (inactive)
GI50 [22]: > 100 µM (inactive)
GI50 [23]: > 100 µM (inactive)
GI50 [26]: > 100 µM (inactive)
GI50 [27]: > 100 µM (inactive)
GI50 [28]: > 100 µM
GI50 [29]: > 100 µM (inactive)
GI50 [30]: > 100 µM (inactive)
GI50 [31]: > 100 µM (inactive)
GI50 [33]: > 100 µM (inactive)
GI50 [34]: > 100 µM (inactive)
GI50 [35]: > 100 µM (inactive)
GI50 [36]: > 100 µM (inactive)
GI50 [38]: > 100 µM (inactive)
GI50 [39]: > 100 µM (inactive)
GI50 [40]: > 100 µM (inactive)
GI50 [41]: > 100 µM (inactive)
GI50 [42]: > 100 µM (inactive)
GI50 [43]: > 100 µM (inactive)
GI50 [45]: > 100 µM (inactive)
GI50 [46]: > 100 µM (inactive)
GI50 [47]: > 100 µM (inactive)
GI50 [48]: > 100 µM (inactive)
GI50 [49]: > 100 µM (inactive)
GI50 [50]: 0.413 µM (active)
GI50 [51]: > 100 µM (inactive)
GI50 [52]: > 100 µM (inactive)
GI50 [53]: > 100 µM (inactive)
GI50 [54]: > 100 µM (inactive)
GI50 [55]: > 100 µM (inactive)
GI50 [56]: > 100 µM (inactive)

O=C(O)CSc1nc2ccccc2[nH]1
GI50 [57]: > 100 µM (inactive)
GI50 [1]: > 100 µM (inactive)
GI50 [2]: > 100 µM (inactive)
GI50 [3]: > 100 µM (inactive)
GI50 [4]: > 100 µM (inactive)
GI50 [5]: > 100 µM (inactive)
GI50 [7]: > 100 µM (inactive)
GI50 [8]: > 100 µM (inactive)
GI50 [9]: > 100 µM (inactive)
GI50 [10]: > 100 µM (inactive)
GI50 [11]: > 100 µM (inactive)
GI50 [12]: > 100 µM (inactive)
GI50 [59]: > 100 µM (inactive)
GI50 [13]: > 100 µM (inactive)
GI50 [14]: > 100 µM (inactive)
GI50 [16]: 74.1 µM (inactive)
GI50 [17]: > 100 µM (inactive)
GI50 [19]: > 100 µM (inactive)
GI50 [20]: > 100 µM (inactive)
GI50 [21]: > 100 µM (inactive)
GI50 [22]: > 100 µM (inactive)
GI50 [23]: > 100 µM (inactive)
GI50 [24]: > 100 µM (inactive)
GI50 [25]: > 100 µM (inactive)
GI50 [26]: > 100 µM (inactive)
GI50 [27]: > 100 µM (inactive)
GI50 [28]: > 100 µM
GI50 [29]: > 100 µM (inactive)
GI50 [30]: > 100 µM (inactive)
GI50 [31]: > 100 µM (inactive)
GI50 [32]: > 100 µM (inactive)
GI50 [33]: > 100 µM (inactive)
GI50 [35]: 6.25 µM (inactive)
GI50 [36]: > 100 µM (inactive)
GI50 [37]: > 100 µM (inactive)
GI50 [38]: > 100 µM (inactive)
GI50 [39]: > 100 µM (inactive)
GI50 [40]: > 100 µM (inactive)
GI50 [41]: > 100 µM (inactive)
GI50 [42]: > 100 µM (inactive)
GI50 [44]: > 100 µM (inactive)
GI50 [45]: > 100 µM (inactive)
GI50 [46]: > 100 µM (inactive)
GI50 [48]: > 100 µM (inactive)
GI50 [49]: > 100 µM (inactive)
GI50 [50]: > 100 µM (inactive)
GI50 [52]: > 100 µM (inactive)
GI50 [54]: > 100 µM (inactive)
GI50 [55]: > 100 µM (inactive)
GI50 [56]: > 100 µM (inactive)

From ChEMBL document CHEMBL1201862, “PubChem BioAssay data set” (2004)
